Data: patent EP0793481B1, “COSMETIC COMPOSITION CONTAINING HYDROXY ALKANOATE DERIVATIVES” (priority 1993, dated 1995)
Read-outs that look alike come from different tables or passages of the source.

What was measured:
[1] = Penetration of acyl lactylates: serial tape stripping of skin and lactate assay (Sigma 735-10) of the tapes; conditions: result in words; 10% by weight solutions, four hours
Description: The penetration of acyl lactylate and lactic acid in this manner can be determined by serial tape stripping and by biochemical assay of free lactate from skin cells adhering to the tape.
The methodology employed using pig skin is as follows:
The tape employed in this test is Desquame tape available from Diastron. Following topical application to skin of acyl lactylate, pieces of this tape are applied to the skin and then removed, and skin cells are assayed for lactate using Sigma 735-10 lactate assay kit. Thus, by repeated stripping of the same area of skin the degree of penetration of the topically applied acyl lactylate and its cleavage by epidermal esterases can be determined.
10% by weight solutions of sodium lactate (control) and of five different sodium acyl lactylates having from C8 to C18 acyl chains, were prepared in pH 7.0 Sorenson's phosphate buffer, 5 mM. Seven pieces of full thickness skin, taken from pig ear, were cut to 4 x 4cm and pinned out. 100 µl aliquots of the 6 test solutions were applied to the entire surface of six pieces of skin, the remaining piece of skin was used as a no-treatment control. […]
Each tape was placed in a labelled 1ml tube and 800µl of 5.00mM phosphate buffer, pH 7.00 was added to each tube. […] The buffer reagent mixture from each tube was then transferred to microcuvettes and the absorbtion of the solutions measured at 540nm using a spectrophotometer.

[2] = Hydrolysis in skin: thin-layer chromatography of radiolabel extracted from tape strips; format: in vitro ADME, pig; conditions: after six hours; for metabolised at 6 h / remaining at 6 h: pig, ear skin, topical or ocular, mean of three repeats; for metabolised at 6 h: spot of hydrolysis products, read-out: % of total label, peak 1; for remaining at 6 h: spot of the applied compound itself, read-out: % of total label, peak 2
Description: In a similar experiment nine tape strips were taken after six hours. The first three strips were incubated in 3ml of phosphate buffer. The next three strips and the final three strips were likewise incubated. After 30 minutes the buffer solutions were spotted onto a thin-layer chromatography plate (bearing silica gel as the stationary phase).
The plate was eluted with 80:20:2 hexane:ether:acetic acid mixture. The spots on the plate were detected and quantified by their emitted radiation. […] The results (mean of three repeats) were:
The results of thin layer chromatography, showing the extent of hydrolysis were: […]

[3] = Deposition of radiolabelled lactylate from diluted detergent composition after rinse-off, scintillation count of tape strips; format: in vitro ADME, pig; conditions: result in words, 0.12M, 100 µl, left for 10 seconds and rinsed off
Description: Radiolabelled sodium lauroyl lactylate, as used in Example 2, was incorporated into a detergent composition containing
This solution was diluted with about four times its own volume of water, so that the concentration of sodium lauroyl lactylate was 0.12M.
100 µl quantities of this diluted solution were applied to test pieces of pig ear, left for 10 seconds and rinsed off. Excess water was removed with cotton wool, and nine tape strips were taken. All the tape strips were placed in a vial with phosphate buffer and scintillation fluid. The radiolabel content was measured using a scintillation counter.

[4] = Lactic acid on tape strips from volar forearm after lauryl lactate dispersion; format: in vivo, human; design: unit not given here; conditions: 2% by weight dispersion in water, 100 µl
Description: This dispersion was tested on the volar forearm of a human volunteer. 100 µl of the dispersion was applied to each of three areas (15cm^2) on the volar forearm, rubbed in and allowed to dry. Ten Desquarne tape strips were taken fropm a fourth, untreated area. After 1 hour ten tape strips were taken from one treated area. Ten tape strips were taken from the other treated areas after 3 and 8 hours respectively. The tape strips taken after 1 hour and 3 hours were stored at room temperature for the rest of the 8 hour period, allowing enzymic hydrolysis.
The amount of lactic acid on each tape strip was determined, by the procedure quoted in Example 1. […] Moreover, this is at all levels, indicating penetration of the lactate ester into the skin where it is hydrolysed.

[5] = Measurement of skin conductivity (SKICON 200) as index of skin moisturisation, panel of volunteers; format: in vivo, human; conditions: for mean adjusted SKICON 200 readings: 100mM in buffer (3.0%), 100µl, relative to pretreatment reading
Text: The topical application to skin of hydroxyalkanoate derivatives improves the retention of moisture by the skin and/or increases the level of moisture in the skin to a significant extent. […] An increase in skin conductivity is thus used as an index of increase in skin moisturisation.
This method measures the cumulative effect of applying products to the skin, on the conductivity of the superficial stratum corneum.
It is well established that the conductivity of the skin, as measured by placing the probe of a suitable conductivity meter in contact with the skin, is proportional to the water content of the outermost strata of the epidermis. The measurement of skin conductivity can therefore be used to indicate the ability of a topically applied product to hydrate the epidermis: see D. van Neste, J. Dermatol Sci., 2, p119 - 124, (1991), "Comparative Study of Normal and Rough Human Skin Hydration in vivo: evaluation with four different instruments". The method is widely used and accepted as indicative of product skin moisturisation efficacy.
The device for measuring skin conductivity employed in this test is the SKICON 200, a skin hygrometer available from IBS Co.
A small panel of volunteers, greater than six in number and preferably from 12 to 20, is recruited for the test.
Two sites 3 x 4cm are marked onto each volar forearm at least 6cm from either the wrist or elbow and with a separation of at least 6cm. Each site is treated once a day for five consecutive days with 100µl of a single treatment material. Allocation of material to left or right arm, upper or lower site is varied to avoid site effects. A total of two treatment materials can be used, one site per panellist remaining untreated for the entire five day period.
On the first day of the test, panellists are allowed to equilibrate in a climate controlled environment (20°C 70% RH for 15 minutes with no significant sensory stimuli). Eight conductivity measurements are taken per site using random positions within the test site; these represent the baseline. 100µl of treatment material is then applied and gently rubbed into the test site for each of the three treatment sites. Further four sets of eight readings from the treatment sites are then taken one, two and four hours after application, again using the equilibration period in a climate controlled environment. This procedure is repeated on the following four days.
The effect of each treatment is then assessed using the following method: adjusted effect =(Mean treatment site reading)/(Mean pretreatment site reading) [formula]
This value is calculated for each treatment, for each timepoint on each day of treatment for each panellist, resulting in a final mean value for the adjusted effect for the entire panel also being obtained by calculation.
The following treatments were applied in this test • 1. 5mM Sorensons phosphate buffer pH 7.00 + 2% Nipagin • 2. 100mM Sodium dodecoyl lactylate in buffer (a concentration of 3.0%) • 3. No treatment
The results are shown in the table below which records the mean adjusted SKICON 200 readings (i.e. proportional to initial skin conductivity = moisturisation) at hourly periods up to 4 hours.

With `CC(O)C(=O)O` (centres unmarked) [G, sodium lactate, reference compound] the “penetration into the stratum corneum” value [1] was “virtually no penetration occurs”.

Work on `CCCCCCCCCCCC(=O)OC(C)C(=O)O` (centres unmarked) [Lauroyl lactylate, Sodium lauroyl lactylate] yielded a metabolised at 6 h ([2]; Tapes 1-3) of 13.1%, a remaining at 6 h ([2]; Tapes 1-3) of 8.9% and a metabolised at 6 h ([2]; Tapes 4-6) of 35.1%. The remaining at 6 h ([2]; Tapes 4-6) was 64.9%, the metabolised at 6 h ([2]; Tapes 7-9) was 45.2% and the remaining at 6 h ([2]; Tapes 7-9) was 54.8%. For the same molecule, the “hydrolysis in the skin” value ([2]; result in words) was “had occurred in each instance and had occurred to the greatest extent with the material which had penetrated furthest into the skin” and the “deposition onto the skin” value [3] was “a small proportion of the radiolabelled lactylate had deposited onto the skin”.

For `CCCCCCCCCCCCOC(=O)C(C)O` (centres unmarked) [Lauryl lactate], the “amount of lactic acid on each tape strip” value ([4]; 1 Hour, Tape No 1) was 0.289, the “amount of lactic acid on each tape strip” value ([4]; 1 Hour, Tape No 2) was 0.361 and the “amount of lactic acid on each tape strip” value ([4]; 1 Hour, Tape No 3) was 0.217. For the same molecule, the “amount of lactic acid on each tape strip” value ([4]; 1 Hour, Tape No 4) was 0.124, the “amount of lactic acid on each tape strip” value ([4]; 1 Hour, Tape No 5) was 0.192 and the “amount of lactic acid on each tape strip” value ([4]; 1 Hour, Tape No 6) was 0.201. The “amount of lactic acid on each tape strip” value ([4]; 1 Hour, Tape No 7) was 0.179, the “amount of lactic acid on each tape strip” value ([4]; 1 Hour, Tape No 8) was 0.177 and the “amount of lactic acid on each tape strip” value ([4]; 1 Hour, Tape No 9) was 0.211. For the same molecule, the “amount of lactic acid on each tape strip” value ([4]; 1 Hour, Tape No 10) was 0.169, the “amount of lactic acid on each tape strip” value ([4]; 3 Hours, Tape No 1) was 0.282 and the “amount of lactic acid on each tape strip” value ([4]; 3 Hours, Tape No 2) was 0.250. The “amount of lactic acid on each tape strip” value ([4]; 3 Hours, Tape No 3) was 0.252, the “amount of lactic acid on each tape strip” value ([4]; 3 Hours, Tape No 4) was 0.262 and the “amount of lactic acid on each tape strip” value ([4]; 3 Hours, Tape No 5) was 0.485. The “amount of lactic acid on each tape strip” value ([4]; 3 Hours, Tape No 6) was 0.487, the “amount of lactic acid on each tape strip” value ([4]; 3 Hours, Tape No 7) was 0.271 and the “amount of lactic acid on each tape strip” value ([4]; 3 Hours, Tape No 8) was 0.246. For the same molecule, the “amount of lactic acid on each tape strip” value ([4]; 3 Hours, Tape No 9) was 0.254, the “amount of lactic acid on each tape strip” value ([4]; 3 Hours, Tape No 10) was 0.269 and the “amount of lactic acid on each tape strip” value ([4]; 8 Hours, Tape No 1) was 0.260. For the same molecule, the “amount of lactic acid on each tape strip” value ([4]; 8 Hours, Tape No 2) was 0.210, the “amount of lactic acid on each tape strip” value ([4]; 8 Hours, Tape No 3) was 0.250 and the “amount of lactic acid on each tape strip” value ([4]; 8 Hours, Tape No 4) was 0.222. The “amount of lactic acid on each tape strip” value ([4]; 8 Hours, Tape No 5) was 0.259, the “amount of lactic acid on each tape strip” value ([4]; 8 Hours, Tape No 6) was 0.230 and the “amount of lactic acid on each tape strip” value ([4]; 8 Hours, Tape No 7) was 0.241. The “amount of lactic acid on each tape strip” value ([4]; 8 Hours, Tape No 8) was 0.234, the “amount of lactic acid on each tape strip” value ([4]; 8 Hours, Tape No 9) was 0.194 and the “amount of lactic acid on each tape strip” value ([4]; 8 Hours, Tape No 10) was 0.449.

With `CCCCCCCCCCCC(=O)OC(C)C(=O)O` (centres unmarked) [Na Acyl Lactylate, Sodium dodecoyl lactylate] the “mean adjusted SKICON 200 readings” value ([5]; T=0 Hr) was 1.00, the “mean adjusted SKICON 200 readings” value ([5]; T=1 Hr) was 1.27 and the “mean adjusted SKICON 200 readings” value ([5]; T=2 Hr) was 1.30. For the same molecule, the “mean adjusted SKICON 200 readings” value ([5]; T=4 Hr) was 1.31 and the “moisturisation of the skin” value ([5]; result in words, compared with the buffer alone) was “significant moisturisation of the skin was achieved”.
